From ChEMBL document CHEMBL1134332, “Design of remarkably simple, yet potent urea-based inhibitors of glutamate carboxypeptidase II (NAALADase)” (J Med Chem, 2001) come the findings set out here.

Calls of active or inactive are those of the source. No cut-off for these calls is given here. Peptide text beside a SMILES is read from it.

Assay [1] concerns the target T1, Glutamate carboxypeptidase 2 (Rattus norvegicus, UniProt P70627). Kind of assay: Inhibitory activity against expressed rat Glutamate carboxypeptidase IIusing a substrate concentration of 5 uM.
In assay [2] the target is T1, Glutamate carboxypeptidase 2. As to the kind of experiment: Inhibitory activity against expressed rat Glutamate carboxypeptidase II, using a substrate concentration of 5 uM.
The target of assay [3] is Glutamate carboxypeptidase 2 (Rattus norvegicus) (UniProt P70627). Kind of assay: Percentage inhibition at 1 uM against rat Glutamate carboxypeptidase II using a substrate concentration of 5 uM.
For assay [4] the target is unchanged. Kind of assay: Percentage inhibition at 100 uM.
Assay [5] has the same target. As to the kind of experiment: Percentage inhibition at 1 uM; IA means inactive.
For assay [6] the target is unchanged. Kind of assay: Percentage inhibition at 1 uM against rat Glutamate carboxypeptidase II, using a substrate concentration of 5 uM.

T1 sequence (P70627 whole entry): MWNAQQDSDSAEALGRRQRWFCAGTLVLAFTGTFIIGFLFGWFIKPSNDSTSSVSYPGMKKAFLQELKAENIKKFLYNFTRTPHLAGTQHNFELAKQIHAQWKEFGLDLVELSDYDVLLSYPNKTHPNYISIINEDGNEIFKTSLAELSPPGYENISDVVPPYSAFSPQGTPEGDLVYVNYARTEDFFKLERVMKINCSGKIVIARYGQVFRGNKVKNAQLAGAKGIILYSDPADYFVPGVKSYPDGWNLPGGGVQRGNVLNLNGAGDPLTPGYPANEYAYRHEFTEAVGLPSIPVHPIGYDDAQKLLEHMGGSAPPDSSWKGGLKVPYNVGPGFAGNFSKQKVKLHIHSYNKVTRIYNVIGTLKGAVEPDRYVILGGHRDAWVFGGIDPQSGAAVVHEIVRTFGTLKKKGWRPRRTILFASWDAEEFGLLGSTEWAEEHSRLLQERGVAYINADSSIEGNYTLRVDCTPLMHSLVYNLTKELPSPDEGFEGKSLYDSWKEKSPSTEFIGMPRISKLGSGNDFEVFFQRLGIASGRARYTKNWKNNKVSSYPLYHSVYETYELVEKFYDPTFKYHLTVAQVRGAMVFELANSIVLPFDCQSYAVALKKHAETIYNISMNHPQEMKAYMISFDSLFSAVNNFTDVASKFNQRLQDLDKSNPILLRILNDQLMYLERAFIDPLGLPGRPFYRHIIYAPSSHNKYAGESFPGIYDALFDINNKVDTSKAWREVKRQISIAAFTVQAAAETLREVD
Glutamate carboxypeptidase 2 (Rattus norvegicus), sequence (P70627 whole entry, looked up): as the sequence (P70627 whole entry) above

Turning to `N[C@@H](CC(=O)O)C(=O)N[C@@H](CCC(=O)O)C(=O)O` (H-Asp-Glu-OH), in assay [1], the IC50 was 2400 nM.

As to `CC(C)(C)SCC(NC(=O)N[C@@H](CCC(=O)O)C(=O)O)C(=O)O` (stereo partly specified), the IC50 in assay [2] amounted to 29 nM. For the molecule `O=C(O)CCC(CP(=O)(O)O)C(=O)O` (stereo unspecified), the IC50 in assay [2] was 5.1 nM. In the case of `CC(C)(C)NC(=O)N[C@@H](CCC(=O)O)C(=O)O`, in assay [3], the inhibition turned out to be 10%. Molecule `O=C(O)CC[C@H](NC(=O)NCC(=O)O)C(=O)O` gave an inhibition in assay [3] of 46%.

For the molecule `O=C(O)CC[C@H](CP(=O)(O)C[C@@H](CCC(=O)O)C(=O)O)C(=O)O`, in assay [2], the concentration for half-maximal inhibition (IC50) came out at 21.7 nM. Molecule `N[C@@H](CC(=O)O)C(=O)N[C@@H](CC(=O)O)C(=O)O` (H-Asp-Asp-OH) showed an inhibition in assay [4] of 42%. Consider `O=C(N[C@@H](CS)C(=O)O)N[C@@H](CS)C(=O)O`, for which, in assay [5], the IA entry is “inactive”.

In assay [6], `O=C(O)CC[C@H](NC(=O)C(=O)N[C@@H](CCC(=O)O)C(=O)O)C(=O)O` displayed an inhibition of 9%. Molecule `O=C(O)CC[C@H](NC(=O)N[C@@H](CS)C(=O)O)C(=O)O` registered an IC50 in assay [2] of 6.9 nM. `N[C@@H](CCC(=O)O)C(=O)N[C@@H](CCC(=O)O)C(=O)O` (H-Glu-Glu-OH): the IC50 in assay [2] came out at 750 nM.

The IC50 is the point on the concentration scale where inhibition reaches its midpoint. A lower IC50 goes with greater potency in that assay. As a reminder, the inhibition is the change of the read-out against control, counted positive when it falls. Read a low inhibition as a response near the control.
